Test results published in the NIST ThermoML archive (doi:10.1016/j.jct.2014.02.012).
± gives the expanded uncertainty stated by the source.

How the values were obtained:
[1] = 298.15 K; for surface tension liquid-gas: Wilhelmy plate method; for viscosity / mass density: 101.33 kPa, Liquid; for viscosity: Capillary tube (Ostwald / Ubbelohde) method; for mass density: Vibrating tube method
[2] = 100 kPa, Liquid mixture 1, Wilhelmy plate method

SMILES	surface tension liquid-gas [1] [mN/m]	viscosity [1] [mPa·s]	mass density [1] [kg/m3]	interfacial tension ([2]; 298.15 K) [mN/m]	interfacial tension ([2]; 348.15 K) [mN/m]
CCCCCCCCCCCCCC[P+](CCCCCC)(CCCCCC)CCCCCC.O=S(=O)([N-]S(=O)(=O)C(F)(F)F)C(F)(F)F	30.9 ± 0.3	311.4 ± 11	1065.5 ± 0.28	–	–
CCCCCCCCCCCCCC[P+](CCCCCC)(CCCCCC)CCCCCC.O=S(=O)([N-]S(=O)(=O)C(F)(F)F)C(F)(F)F + CCCCCCCCCCCC	–	–	–	0.9 ± 0.2	0.6 ± 0.2
CCCCCCCCCCCCCC[P+](CCCCCC)(CCCCCC)CCCCCC.O=S(=O)([N-]S(=O)(=O)C(F)(F)F)C(F)(F)F + O	–	–	–	27.1 ± 0.2	25.6 ± 0.2
CCCCCCCCCCCC [dodecane] + O	–	–	–	52.2 ± 0.3	49.6 ± 0.3

Second part, led by results:

surface tension liquid-gas [1] [mN/m]	viscosity [1] [mPa·s]	SMILES	mass density [1] [kg/m3]	interfacial tension ([2]; 298.15 K) [mN/m]	interfacial tension ([2]; 348.15 K) [mN/m]
72 ± 0.2	0.904 ± 0.019	O [water]	–	–	–
24.9 ± 0.2	1.356 ± 0.029	CCCCCCCCCCCC [dodecane]	745.27 ± 0.24	–	–
